Experimental findings from US5698528A, “Substance IT-62-B and medicinal composition containing the same” (Taiho Pharmaceutical Co., Ltd., priority 1994, dated 1997) are described below.

The test system of assay [1] is murine leukemia P388 cells. In words: Survival effect against murine leukemia P388 cells implanted intraperitoneally. In kind it is in vivo, mouse (male CDF1). The settings on record: 0.25 mg/kg intraperitoneally, 1 day after i.p. implantation of 1×10^6 P388 cells, male CDF1 mice. The source says:
B. Survival effect against murine leukemia P388 cells implanted intraperitoneally:
The antitumor activity of the compound according to the present invention was judged by the survival effect against murine leukemia (p388 cells). The three of Male CDF1 mice (aged 6 weeks) were used as test animals for an administering group and 10 mice for an untreating control group. Murine leukemia P388 cells (1×10^6 cells) were implanted intraperitoneally in all the mice. Upon elapsed time of 1 day (the first day) after the implantation, the substance IT-62-B dissolved in a 3.5% solution of dimethyl sulfoxide in physiological saline was administered intraperitoneally to the mice of the administering group at a dose of 0.25 mg/kg so as to observe survival days of the mice. […] [formula]

Assay [2] has as its system KB cell line derived from human nasopharyngeal carcinoma. In words: 50% inhibitory concentration against KB cell line (growth inhibition, trypan blue viable count). The class given is cell-based. The settings on record: 72 h, incubation for 3 days, 37° C., trypan blue dye exclusion. Here is the method:
A. Determination of 50% inhibitory concentration against the established culture cell line derived from human nasopharyngeal carcinoma:
A 50% inhibitory concentration (IC50) of the compound according to the present invention against an established culture cell line (KB cell line) derived from human nasopharyngeal carcinoma was determined. More specifically, the KB cell line (2×10^3 cells/ml of medium) was cultured in an Eagle's minimal essential medium supplemented with a 10% calf serum, and 3 ml of this culture medium was incubated in a plastic Petri dish to incubate it at 37° C. in a CO2 -incubator (5% CO2). After overnight incubation, the compound according to the present invention was added with the compound diluted from a concentration of 1 μg/ml to a concentration of 1×10^-6 μg/ml by 10-fold dilution.

Assay [3] deals with Bacillus subtilis ATCC(rec^+). In words: Antibacterial MIC (agar dilution). The settings on record: Muller-Hinton agar, 37° C., 18 hours, 10^6 cells/ml. The class given is cell-based. Here is the method: (§1) (1) Determination of antibacterial activities of the substance IT-62-B:
(§2) Minimum inhibitory concentrations (MICs) of the compound according to the present invention against various bacteria were determined in accordance with the MIC measurement method of Japan Society of Chemotherapy (see journal of Chemotherapy, Vol. 29, No. 1, pp. 76-79, 1981). More specifically, Muller-Hinton agar media (product of Difco Co.) containing the compound according to the present invention at various concentrations were used. The test organisms diluted to 10^6 cells/ml, respectively, were inoculated said test organisms having been grown on the same medium as described above.
In general terms: In agar dilution the substance is mixed into plates at graded concentrations.

Assay [4] deals with Staphylococcus aureus (MRSA)92-1192. Put plainly: Antibacterial MIC (agar dilution). The class given is cell-based. The settings on record: 18 h. Here is the method:
as §1, §2

Assay [5] has as its system Proteus vulgaris IID OX-19. In words: Antibacterial MIC (agar dilution). In kind it is cell-based. The settings on record: IIDOX19, Muller-Hinton agar, 37° C., 18 hours, 10^6 cells/ml. Here is the method: as §1, §2
Assay [6] concerns Serratia marcescens IFO 12648. In words: Antibacterial MIC (agar dilution). In kind it is cell-based. The settings on record: IFO12648, Muller-Hinton agar, 37° C., 18 hours, 10^6 cells/ml. Here is the method: as §1, §2
In assay [7] the test system is Alcaligenes faecalis IAM 1015. Put plainly: Antibacterial MIC (agar dilution). In kind it is cell-based. The settings on record: IAM1015, Muller-Hinton agar, 37° C., 18 hours, 10^6 cells/ml. Here is the method:
as §1, §2

Assay [8] has as its system Klebsiella pneumoniae ATCC 29665. Put plainly: Antibacterial MIC (agar dilution). In kind it is cell-based. The settings on record: ATCC29665, Muller-Hinton agar, 37° C., 18 hours, 10^6 cells/ml. Here is the method:
as §1, §2

Assay [9] has as its system Escherichia coli IAM 1268. Put plainly: Antibacterial MIC (agar dilution). The class given is cell-based. The settings on record: IAM1268, Muller-Hinton agar, 37° C., 18 hours, 10^6 cells/ml. Here is the method: as §1, §2
Assay [10] concerns Pseudomonas aeruginosa NCTC 10490. Put plainly: Antibacterial MIC (agar dilution). In kind it is cell-based. The settings on record: NCTC10490, Muller-Hinton agar, 37° C., 18 hours, 10^6 cells/ml. Here is the method: as §1, §2
For assay [11], the system named is Bacillus cereus IFO 3001. In words: Antibacterial MIC (agar dilution). The class given is cell-based. The settings on record: IFO3001, Muller-Hinton agar, 37° C., 18 hours, 10^6 cells/ml. Here is the method: as §1, §2
For assay [12], the system named is Staphylococcus epidermidis ATCC 12228. Put plainly: Antibacterial MIC (agar dilution). The class given is cell-based. The settings on record: ATCC12228, Muller-Hinton agar, 37° C., 18 hours, 10^6 cells/ml. Here is the method:
as §1, §2

Assay [13] deals with Escherichia coli NIHJ. In words: Antibacterial MIC (agar dilution). The settings on record: Muller-Hinton agar, 37° C., 18 hours, 10^6 cells/ml. In kind it is cell-based. Here is the method: as §1, §2
The test system of assay [14] is Bacillus subtilis ATCC 6633. Put plainly: Antibacterial MIC (agar dilution). In kind it is cell-based. The settings on record: ATCC6633, Muller-Hinton agar, 37° C., 18 hours, 10^6 cells/ml. Here is the method:
as §1, §2

Assay [15] relates to Salmonella typhymurium G-46. Put plainly: Antibacterial MIC (agar dilution). The settings on record: G46, Muller-Hinton agar, 37° C., 18 hours, 10^6 cells/ml. In kind it is cell-based. Here is the method:
as §1, §2

For assay [16], the system named is Staphylococcus aureus Smith. In words: Antibacterial MIC (agar dilution). The class given is cell-based. The settings on record: Muller-Hinton agar, 37° C., 18 hours, 10^6 cells/ml. Here is the method:
as §1, §2

Assay [17] concerns Staphylococcus aureus (MRSA)70. Put plainly: Antibacterial MIC (agar dilution). The settings on record: 18 h. In kind it is cell-based. Here is the method:
as §1, §2

For assay [18], the system named is Micrococcus luteus ATCC 10240. Put plainly: Antibacterial MIC (agar dilution). The settings on record: ATCC10240, Muller-Hinton agar, 37° C., 18 hours, 10^6 cells/ml. The class given is cell-based. Here is the method:
as §1, §2

Assay [19] concerns Bacillus subtilis ATCC(rec^-). Put plainly: Antibacterial MIC (agar dilution). The settings on record: Muller-Hinton agar, 37° C., 18 hours, 10^6 cells/ml. In kind it is cell-based. Here is the method:
as §1, §2

The subject of assay [20] is Micrococcus luteus ATCC 9341. Put plainly: Antibacterial MIC (agar dilution). In kind it is cell-based. The settings on record: ATCC9341, Muller-Hinton agar, 37° C., 18 hours, 10^6 cells/ml. Here is the method: as §1, §2
Assay [21] has as its system Enterococcus faecalis IFO 12968. Put plainly: Antibacterial MIC (agar dilution). The class given is cell-based. The settings on record: IFO12968, Muller-Hinton agar, 37° C., 18 hours, 10^6 cells/ml. Here is the method:
as §1, §2

The term IC50 denotes the concentration at which inhibition is half-maximal. High values mean lower potency, low ones higher potency. The term MIC denotes the smallest concentration in the dilution series that meets the test's criterion for growth inhibition. A lower MIC goes with inhibition by little substance.

≈ marks a conversion by molar mass, not a printed value. Where only a bound is given, the exact number is not on record here.

Turning to `COc1cccc2c1C(=O)c1c(O)c3c(c(O)c1C2=O)CC(O)(C(C)=O)CC3OC1CC2C(OC(CC(C)O)OC(C)C3OC(C(C)CO)C(=O)N23)C(C)O1` (stereo not drawn) [IT-62-B], the “Percent increase in survival” value in assay [1] is given as 119%. Further, the midpoint of inhibition in assay [2], the IC50, lay at 0.006 µg/mL (≈ 0.00779 µM). Besides, the MIC was 6.25 µg/mL (≈ 8.12 µM) in assay [3]; 12.5 µg/mL (≈ 16.2 µM) in assay [4]; above 100 µg/mL in [5]; above 100 µg/mL in assay [6]; 12.5 µg/mL (≈ 16.2 µM) in assay [7]; above 100 µg/mL in assay [8]. The MIC in assay [9] was 50 µg/mL (≈ 65 µM); in [10], above 100 µg/mL; in [11], 12.5 µg/mL (≈ 16.2 µM); in assay [12] it was 25 µg/mL (≈ 32.5 µM); in [13], 100 µg/mL (≈ 130 µM); in [14] it was 3.13 µg/mL (≈ 4.07 µM). Moreover, the MIC in [15] was above 100 µg/mL; in assay [16], 6.25 µg/mL (≈ 8.12 µM); in assay [17] it was 12.5 µg/mL (≈ 16.2 µM); in assay [18], 1.56 µg/mL (≈ 2.03 µM); in assay [19] it was 0.39 µg/mL (≈ 0.507 µM); in assay [20], 3.13 µg/mL (≈ 4.07 µM). For the same compound, 50 µg/mL (≈ 65 µM) was the least that counted as inhibitory in assay [21] (MIC).
